From publication PMC5108082, “Pharmacokinetics, toxicity, and cytochrome P450 modulatory activity of plumbagin” (BMC Pharmacology & Toxicology, 2016)

Columns and labels:
CYP1A2 mRNA = CYP1A2 mRNA expression in livers of treated mice (RT-PCR); assay type: in vivo, mouse; conditions: mice, 25, 12.5, 6.25 mg/kg daily oral for 28 days vs control
Protocol: Mice were divided into four groups (3 male mice each). Mice in the treated groups were fed with plumbagin at a daily oral dose of 25, 12.5, or 6.25 mg/kg body weight (1 mL) for 28 days. The control group received a daily oral dose (1 mL) of 20 % Tween-80 for 28 days. At the end of the experiment period, all animals were sacrificed under ether anesthesia and livers were removed for investigation of the modulatory effect of plumbagin on hepatic CYP1A2 and CYP3A11.
The liver sample isolated from each mouse was rinsed with ice-cold, 0.9 % NaCl and total RNA was prepared using Trizol^TM reagent according to the manufacturer’s protocol (Invitrogen, Karlsruhe, Germany). Briefly, the sample was homogenized in TRIZOL reagent (1 mL) per 50–100 mg of tissue. The homogenized sample was incubated at 25 °C for 5 min and chloroform (0.2 mL/1 mL of TRIZOL reagent) was added. The sample was thoroughly mixed and incubated at 25 °C for 3 min. Following centrifugation (12,000 × g for 15 min, 2–8 °C), the sample was separated into a lower red phenol-chloroform phase, an interphase, and a colorless upper aqueous phase. […] The RNA pellets were dried and dissolved in 20 μL DEPC-treated water and the concentrations were determined using NanoDrop Spectrophotometry (NanoDrop Technologies, Wilmington, DE, USA). […]

CYP3A4 = conditions: cited from earlier work

## CC1=CC(=O)c2c(O)cccc2C1=O [plumbagin, 5-hydroxy-2-methyl-1,4-naphthoquinone]
CYP1A2 mRNA
  modulation of CYP1A2 mRNA expression: not found to induce or inhibit
CYP1A2 mRNA; listed as Plumbagin
  modulation of CYP1A2 mRNA expression: did not significantly modulate
CYP3A4
  IC50: 2370 nM
